The record followed here is patent US11839663B2, “Radiolabelled MGL pet ligands” (Janssen Pharmaceutica NV, priority 2019, dated 2023).

The structures appear in SMILES notation.

The target in assay [1] is human MGL from HeLa cells (Homo sapiens (Human), UniProt Q99685). Kind of assay: MGL in vitro activity assay ([glycerol-1,3-3H]-oleyl glycerol cleavage). The assay is classed as biochemical. As to conditions: 300 nM [Glycerol-1,3-3H]-oleyl glycerol, one hour incubation, endogenous MGL from HeLa cells. The procedure:
The assay used to measure the in vitro activity of MGL is adapted from the assay used for another serine hydrolase (FAAH) described in Wilson et al., 2003 (A high-throughput-compatible assay for determining the activity of fatty acid amide hydrolase. Wilson S J, Lovenberg T W, Barbier A J. Anal Biochem. 2003 Jul. 15; 318(2):270-5.). The assay consists of combining endogenously expressed MGL from HeLa cells with test compounds, adding [glycerol-1,3-^3H]-oleyl glycerol, incubating for one hour, and then measuring the amount of cleaved [1,3-^3H]-glycerol that passes through an activated carbon filter. The amount of cleaved, tritiated glycerol passing through the carbon filter is proportional to the activity of the MGL enzyme in a particular well/test condition.
Standard conditions for this assay combine 300 nM [Glycerol-1,3-^3H]-oleyl glycerol with human MGL from HeLa cells and test compounds for one hour, after which the reaction is filtered through activated carbon and tritium is measured in the flow through. The test compound concentration in screening mode is 10 uM, while the highest compound concentration in IC50 assays is determined empirically. MGL is the predominant hydrolase in HeLa cells/cell homogenates.

Another assay concerns the target MGL (Rattus norvegicus (Rat), UniProt Q8R431). Kind of assay: In vitro autoradiography (ARG) on frozen normal rat brain sections. The assay is classed as binding. The following applies: sagittal rat brain section 20 um, 400 uCi/ml in 50 mM Tris-HCl pH 7.4, 30 min at room temperature. The procedure:
In vitro ARG using the compound of Example 3 was performed on a frozen normal rat brain sections (sagittal cut, thickness at 20 um). After taken out from freezer for 15 min, the rat brain section was added 250 ul of buffer solution (50 mM Tris-HCl pH=7.4) which contains the compound of Example 3 with the concentration of 400 uCi/ml. The brain section was incubated with the incubation buffer at room temperature for 30 min, was then washed with blank fresh buffer solution for 5 min, repeated 3 times. The brain section was air-dried, exposed to a phosphor screen in a cassette in dark environment for 18 hours. The screen was then scanned then Typhoon™ FLA 7000 Image Analyzer (GE) to generate the autoradiography of the compound of Example 3 on rat brain section (FIG. 2). […] The distribution pattern matches IHC staining pattern described below.
The IHC staining was performed on a frozen normal rat brain section (sagittal cut, thickness at 10 um) which is adjacent to the brain section used in ARG described above. After taken out from freezer for 15 min, the rat brain section was added 4% paraformaldehyde and fixed for 20 min at room temperature. The section was then washed with fresh phosphate buffer solution (PBS, 0.01 M, pH=7.4) for 5 min, repeated 3 times, followed by treatment of hydrogen peroxide solution (3% in PBS) at room temperature for 20 min. […]

Chain of MGL (Q8R431 whole entry): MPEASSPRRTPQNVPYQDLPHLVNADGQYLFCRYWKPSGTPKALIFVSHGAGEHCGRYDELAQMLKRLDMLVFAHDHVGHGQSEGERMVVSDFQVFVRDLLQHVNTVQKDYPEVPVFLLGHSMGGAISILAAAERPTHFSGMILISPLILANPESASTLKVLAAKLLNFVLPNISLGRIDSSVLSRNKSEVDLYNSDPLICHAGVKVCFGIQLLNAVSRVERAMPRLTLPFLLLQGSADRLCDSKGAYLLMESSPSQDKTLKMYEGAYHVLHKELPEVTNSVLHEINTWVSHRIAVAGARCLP
Chain of human MGL from HeLa cells (Q99685 whole entry): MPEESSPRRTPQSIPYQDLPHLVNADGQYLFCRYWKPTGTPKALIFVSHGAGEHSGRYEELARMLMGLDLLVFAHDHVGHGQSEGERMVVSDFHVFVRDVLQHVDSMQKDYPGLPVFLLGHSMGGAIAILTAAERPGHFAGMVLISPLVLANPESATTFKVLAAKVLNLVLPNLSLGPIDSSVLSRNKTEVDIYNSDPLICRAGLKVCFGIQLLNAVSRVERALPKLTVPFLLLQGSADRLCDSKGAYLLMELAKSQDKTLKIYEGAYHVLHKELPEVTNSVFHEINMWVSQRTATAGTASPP

For `C[C@H]1c2nn(C)c(-c3cc(F)cc(F)c3)c2CCN1C(=O)c1c(F)cccc1Cl` [Example 1, (S)-(2-Chloro-6-fluorophenyl)(3-(3,5-difluorophenyl)-2,7-dimethyl-2,4,5,7-tetrahydro-6H-pyrazolo[3,4-c]pyridin-6-yl)methanone], inhibition in assay [1] was half-maximal at 2.3 pM (IC50). Regarding `C[C@H]1c2nn(C)c(-c3cc(F)cc(F)c3)c2CCN1C(=O)c1c([18F])cccc1Cl` [Example 3], the “ARG signals (regional distribution)” value at MGL is “high in hippocampus, cortex, cerebellum and thalamus regions and low in brainstem”.

As usually defined, the IC50 is the concentration at which inhibition is half-maximal.
